The target of experiment [1] is T1, Beta-secretase 1 (Homo sapiens, UniProt P56817). Description: Inhibition of BACE1 at 20 ug/ml by FRET assay.
The target of experiment [2] is T1, Beta-secretase 1. Conditions: 2 ug/ml.
Description: Inhibition of BACE1 at 2 ug/ml by FRET assay
The target in experiment [3] is T1, Beta-secretase 1. Put plainly: Inhibition of BACE1 by FRET assay.

These results are taken from ChEMBL document CHEMBL1139256, “Identification of pharmacophore model, synthesis and biological evaluation of N-phenyl-1-arylamide and N-phenylbenzenesulfonamide derivatives as BACE 1 inhibitors” (Bioorg Med Chem, 2008).

*1 amine or outer side, *2 acyl side, *3 side chain or, on linkers, in order; H or OH if unused. Where a SMILES comes first, the peptide text is derived from it. [ ]: non-standard residue; d: D form. LeuΨ(S-CHOHCH2)Ala = CC(C)C[C@H](N[*:1])[C@@H](O)C[C@@H](C)C(=O)[*:2]

T1 sequence (P56817 whole entry): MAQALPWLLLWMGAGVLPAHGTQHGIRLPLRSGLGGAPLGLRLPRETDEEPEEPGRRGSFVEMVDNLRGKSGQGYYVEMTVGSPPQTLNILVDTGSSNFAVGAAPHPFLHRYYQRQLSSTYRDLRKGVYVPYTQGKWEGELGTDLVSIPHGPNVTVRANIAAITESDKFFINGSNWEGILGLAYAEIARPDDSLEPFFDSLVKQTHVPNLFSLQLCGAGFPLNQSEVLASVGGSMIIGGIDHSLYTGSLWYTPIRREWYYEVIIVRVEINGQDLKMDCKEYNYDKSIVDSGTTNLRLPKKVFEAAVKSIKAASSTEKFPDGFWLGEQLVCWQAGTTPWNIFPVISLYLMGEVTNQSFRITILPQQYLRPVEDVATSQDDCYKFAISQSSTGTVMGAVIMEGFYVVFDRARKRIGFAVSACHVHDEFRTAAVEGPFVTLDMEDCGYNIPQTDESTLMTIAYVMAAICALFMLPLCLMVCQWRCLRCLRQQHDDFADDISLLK

For `O=C(CCc1ccccc1)Nc1cc(Br)ccc1OCCN1CCOCC1`, the inhibition on Beta-secretase 1 [1] was 13.8%.
With `CC(C)C[C@H](NC(=O)[C@H](CC(N)=O)NC(=O)[C@@H](NC(=O)[C@@H](N)CCC(=O)O)C(C)C)[C@@H](O)C[C@@H](C)C(=O)N[C@@H](C)C(=O)N[C@@H](CCC(=O)O)C(=O)N[C@@H](Cc1ccccc1)C(=O)O` (H-EVN[LeuΨ(S-CHOHCH2)Ala]AEF-OH), the inhibition at Beta-secretase 1 [2] was 102%.
For `O=C(Cc1cccc2ccccc12)Nc1cc(Br)ccc1OCCNC1CCCCC1`, the inhibition against Beta-secretase 1 [1] amounted to 64.5%. For the same compound, 47.1 µM corresponded to half-maximal inhibition against Beta-secretase 1 [3] (IC50).
In the same order, the values of `NCCCCCCNCCOc1ccc(Br)cc1NC(=O)Cc1cccc2ccccc12` are 83.7% and 18.3 µM.
Consider `CCOC(=O)CN(C)CCOc1ccc(Br)cc1NC(=O)Cc1cccc2ccccc12`, for which the inhibition against Beta-secretase 1 [1] came out at 24.7%.
Still for that read-out and setting: in the case of `O=C(Cc1cccc2ccccc12)Nc1cc(Br)ccc1OCCNCCCO` it was 15.1%; in that of `O=S(=O)(Nc1cc(Br)ccc1OCCN1CCOCC1)c1ccc(Br)cc1`, 14.3%.
Still for that read-out and setting: in the case of `O=C(Cc1cccc2ccccc12)Nc1cc(Br)ccc1OCCN1CCOCC1` it was 39.4%; in that of `CCOC(=O)C1CCN(CCOc2ccc(Br)cc2NC(=O)Cc2cccc3ccccc23)CC1`, 34.8%; in that of `CN(CCOc1ccc(Br)cc1NC(=O)Cc1cccc2ccccc12)Cc1ccccc1`, 41.8%.

Usually inhibition stands for the drop in the measured response relative to a control, in per cent. What is called IC50 is the concentration at which inhibition is half-maximal. Lower therefore signals greater potency in that assay.
